Columns and labels:
[1] = in vitro; details: human, MT4 cells
[2] = in vitro; details: human, Huh-7 cells
[3] = test system: Human orthopneumovirus; test: microbe, parasite or virus in culture; details: human respiratory syncytial virus, A2, HEp-2, 96 h
[4] = test system: Hepatitis C virus; test: microbe, parasite or virus in culture; details: subtype 1b, Huh-7, 72 h
[5] = in vitro; details: human, HEp-2 cells
[6] = in vitro; details: human, HEp-2 cells; remark: listed apart in the source
[7] = test system: Respiratory syncytial virus; test: microbe, parasite or virus in culture; details: human respiratory syncytial virus, Primary bronchial epithelial cell, 72 h
[8] = in vitro; details: human, Caco-2
[9] = in vitro; details: human, Caco-2; remark: listed apart in the source
[10] = in vivo; details: cynomolgus monkey, po, 20 mg/kg
[11] = in vivo; details: Sprague-Dawley, rat, po, 8 mg/kg
[12] = in vivo; details: chlorocebus sabaeus, iv, 10 mg/kg
[13] = cells; details: Homo sapiens, HEp-2, 48 h
[14] = cells; details: Homo sapiens, Primary bronchial epithelial cell, 48 h
[15] = in vivo; details: chlorocebus sabaeus, iv, 10 mg/kg; remark: listed apart in the source
[16] = clinical; details: human, in vivo, iv, 75 mg
[17] = test system: Respiratory syncytial virus; details: primary bronchial epithelial cell
[18] = clinical; details: human, in vivo, iv, 75 mg; remark: listed apart in the source
[19] = in vivo; details: chlorocebus sabaeus, iv, 10 mg/kg; remark: listed apart in the source
[20] = in vivo; details: cynomolgus monkey, iv, 10 mg/kg
[21] = in vivo; details: chlorocebus sabaeus, iv, 10 mg/kg; remark: listed apart in the source
[22] = in vivo; details: cynomolgus monkey, iv, 10 mg/kg; remark: listed apart in the source
[23] = in vivo; details: cynomolgus monkey, iv, 10 mg/kg; remark: listed apart in the source
[24] = in vivo; details: cynomolgus monkey, iv, 10 mg/kg; remark: listed apart in the source
[25] = test system: Human orthopneumovirus; details: hep-2
[26] = in vivo; details: cynomolgus monkey, iv, 10 mg/kg; remark: listed apart in the source
[27] = in vivo; details: chlorocebus sabaeus, iv, 10 mg/kg; remark: listed apart in the source
[28] = in vivo; details: dog, po
[29] = in vivo; details: cynomolgus monkey, iv, 20 mg/kg
[30] = in vivo; details: cynomolgus monkey, iv, 20 mg/kg; remark: listed apart in the source

| Structure (SMILES) | EC50 [3] [nM] | CC50 [5] [nM] | EC50 [7] [nM] | selectivity ratio ([6]; Ratio CC50/EC50) | also measured |
| --- | --- | --- | --- | --- | --- |
| C[C@@]1(c2ccc3c(N)ncnn23)O[C@H](CO)[C@@H](O)[C@H]1O | 5500 |  |  |  | CC50 at 120 h [1]: 4500 nM; CC50 at 72 h [2]: > 45000 nM |
| C#C[C@@]1(c2ccc3c(N)ncnn23)O[C@H](CO)[C@@H](O)[C@H]1O | 34000 | > 100000 |  |  | EC50 [4]: > 89000 nM; CC50 at 120 h [1]: > 50000 nM; CC50 at 72 h [2]: > 89000 nM |
| CC(C)(C)C(=O)SCCOP(=O)(OCCSC(=O)C(C)(C)C)OC[C@H]1O[C@@](C#N)(c2ccc3c(N)ncnn23)[C@H](O)[C@@H]1O | 150 | 8700 |  |  | selectivity ratio [6]: 58 |
| C[C@@]1(O)[C@H](O)[C@@H](CO)O[C@@]1(C#N)c1ccc2c(N)ncnn12 | > 100000 | > 100000 |  |  | EC50 [4]: > 89000 nM; CC50 at 120 h [1]: > 200000 nM; CC50 at 72 h [2]: > 89000 nM |
| CCC(CC)COC(=O)[C@H](C)N[P@@](=O)(OC[C@H]1O[C@@](C#N)(c2ccc3c(N)ncnn23)[C@H](O)[C@@H]1O)Oc1ccccc1 | 28 | 26000 | 65 |  |  |
| CC(C)OC(=O)[C@H](C)NP(=O)(OC[C@H]1O[C@@](C#N)(c2ccc3c(N)ncnn23)[C@H](O)[C@@H]1O)Oc1ccccc1 (some centres not stated) | 360 | > 100000 | 2500 | > 277 |  |
| C[C@H](NP(=O)(OC[C@H]1O[C@@](C#N)(c2ccc3c(N)ncnn23)[C@H](O)[C@@H]1O)Oc1ccccc1)C(=O)OC1CCC1 (some centres not stated) | 75 | 34000 | 420 | 453 |  |
| CCOC(=O)[C@H](C)NP(=O)(N[C@@H](C)C(=O)OCC)OC[C@H]1O[C@@](C#N)(c2ccc3c(N)ncnn23)[C@H](O)[C@@H]1O | 6480 | > 100000 |  | > 15 |  |
| C[C@H](NP(=O)(OC[C@H]1O[C@@](C#N)(c2ccc3c(N)ncnn23)[C@H](O)[C@@H]1O)Oc1ccccc1)C(=O)OC1CCCC1 (some centres not stated) | 170 | > 80000 | 350 | 471 |  |
| Nc1ncnn2c([C@@H]3O[C@H](CO)[C@@H](O)[C@H]3O)ccc12 | > 50000 | 36 |  |  | EC50 [4]: 3.5 nM; CC50 at 120 h [1]: < 10 nM |
| C[C@H](NP(=O)(OC[C@H]1O[C@@](C#N)(c2ccc3c(N)ncnn23)[C@H](O)[C@@H]1O)Oc1ccccc1)C(=O)OCC(C)(C)C (some centres not stated) | 50 | 11000 | 530 | 220 |  |
| C#C[C@@]1(c2ccc3c(N)ncnn23)O[C@H](COP(=O)(N[C@@H](C)C(=O)OCC(CC)CC)Oc2ccccc2)[C@@H](O)[C@H]1O (some centres not stated) | 750 | > 100000 |  | > 133 |  |
| C[C@H](NP(=O)(OC[C@H]1O[C@@](C#N)(c2ccc3c(N)ncnn23)[C@H](O)[C@@H]1O)Oc1ccccc1)C(=O)OC(C)(C)C (some centres not stated) | 4500 | > 100000 | > 5000 | > 22 |  |
| CCOC(=O)[C@H](C)NP(=O)(OC[C@H]1O[C@@](C#N)(c2ccc3c(N)ncnn23)[C@H](O)[C@@H]1O)Oc1ccccc1 (some centres not stated) | 300 | > 73000 | 850 | > 243 |  |
| CCC(CC)OC(=O)[C@H](C)NP(=O)(OC[C@H]1O[C@@](C#N)(c2ccc3c(N)ncnn23)[C@H](O)[C@@H]1O)Oc1ccccc1 (some centres not stated) | 310 | > 100000 | > 5000 | 323 |  |
| CCC(=O)OC[C@H]1O[C@@](C#N)(c2ccc3c(N)ncnn23)[C@H](OC(=O)CC)[C@@H]1OC(=O)CC | 430 | > 100000 |  |  | Papp B→A [8]: 0.26 ×10⁻⁶ cm/s; Papp A→B [9]: < 0.1 ×10⁻⁶ cm/s |
| C[C@H](NP(=O)(OC[C@H]1O[C@@](C#N)(c2ccc3c(N)ncnn23)[C@H](O)[C@@H]1O)Oc1ccccc1)C(=O)OC1CCCCCCC1 (some centres not stated) | 28 | 48000 |  |  | selectivity ratio [6]: 1710 |
| CC(C)[C@H](N)C(=O)OC[C@H]1O[C@@](C#N)(c2ccc3c(N)ncnn23)[C@H](O)[C@@H]1O | 1110 | > 100000 |  |  | Papp B→A [8]: 0.45 ×10⁻⁶ cm/s; Papp A→B [9]: 0.55 ×10⁻⁶ cm/s |
| C[C@H](NP(=O)(OC[C@H]1O[C@@](C#N)(c2ccc3c(N)ncnn23)[C@H](O)[C@@H]1O)Oc1ccccc1)C(=O)OCC1CC1 (some centres not stated) | 44 | 50000 | 620 |  | selectivity ratio [6]: 1140 |
| C[C@H](NP(=O)(OC[C@H]1O[C@@](C#N)(c2ccc3c(N)ncnn23)[C@H](O)[C@@H]1O)Oc1ccccc1)C(=O)OCC1CCC1 (some centres not stated) | 24 | 23000 | 130 |  | selectivity ratio [6]: 958 |
| CCC(CC)COC(=O)[C@H](C)NP(=O)(N[C@@H](C)C(=O)OCC(CC)CC)OC[C@H]1O[C@@](C#N)(c2ccc3c(N)ncnn23)[C@H](O)[C@@H]1O | 310 | 36000 | 170 |  | selectivity ratio [6]: 116 |
| CC(=O)OC[C@H]1O[C@@](C#N)(c2ccc3c(N)ncnn23)[C@H](OC(C)=O)[C@@H]1OC(C)=O | 820 | > 100000 |  |  | Papp B→A [8]: 1.9 ×10⁻⁶ cm/s; Papp A→B [9]: 0.9 ×10⁻⁶ cm/s |
| CC(C)C(=O)OC[C@H]1O[C@@](C#N)(c2ccc3c(N)ncnn23)[C@H](OC(=O)C(C)C)[C@@H]1OC(=O)C(C)C | 260 | 81000 |  |  | bioavailability [10]: 28%; Papp B→A [8]: 1.5 ×10⁻⁶ cm/s; bioavailability [11]: 57% |
| CCC(CC)COC(=O)[C@H](C)N[P@](=O)(OC[C@H]1O[C@@](C#N)(c2ccc3c(N)ncnn23)[C@H](O)[C@@H]1O)Oc1ccccc1 (stereo in doubt) |  |  |  |  | Vd at 0.5 h [12]: 0.94 L/kg; IC50 [13]: 110 nM; bioavailability [10]: < 1%; IC50 [14]: 140 nM; Cmax at 0.5 h [15]: 12.6 µM; Cmax at 1 h [16]: < 1 µM; EC50 [17]: 49 nM; Cmax at 0.5 h [18]: 5 µM; clearance at 0.5 h [19]: 35.5 mL/min/kg; Vd at 0.5 h [20]: 0.45 L/kg; half-life at 0.5 h [21]: 48 min; AUC(0-inf) at 0.5 h [22]: 8.8 µM·h; Cmax at 0.5 h [23]: 22.7 µM; half-life at 0.5 h [24]: 24 min; EC50 [25]: 15 nM; clearance at 0.5 h [26]: 32 mL/min/kg; AUC(0-inf) at 0.5 h [27]: 7.9 µM·h |
| CCC(CC)COC(=O)[C@H](C)N[P@](=O)(OC[C@H]1O[C@@](C#N)(c2ccc3c(N)ncnn23)[C@H](O)[C@@H]1O)Oc1ccccc1 (stereo in doubt; 18j) | 27 |  | 69 |  |  |
| N#C[C@@]1(c2ccc3c(N)ncnn23)O[C@H](CO)[C@@H](O)[C@H]1O [GS-441524] | 530 | > 100000 | 1850 |  | bioavailability [28]: 89%; IC50 [13]: 350 nM; bioavailability [10]: 3.4%; Papp B→A [8]: 2.1 ×10⁻⁶ cm/s; AUC(0-inf) at 0.5 h [29]: 123 µM·h; IC50 [14]: 220 nM; Cmax at 0.5 h [30]: 79.2 µM; bioavailability [11]: 12%; CC50 at 120 h [1]: > 50000 nM; CC50 at 72 h [2]: > 89000 nM; Papp A→B [9]: 0.17 ×10⁻⁶ cm/s |
